Laboratory results reported in PMC11642486 (International Journal of Molecular Sciences, 2024).
Where a name gives a salt, the structure may show the parent alone.

What was measured:
[1] = system: NF-kB p65; experiment: NF-kB p65 nuclear translocation by immunofluorescence in LPS-activated microglia; format: cell-based, murine; conditions: LPS + drug 30 min
Procedure: (§1) Lipopolysaccharide (LPS) from Escherichia coli 026:B6 in an aqueous solution (Thermo Fisher Scientific) was used as proinflammatory stimuli in microglia at a final concentration of 600 ng/mL. For the LPS experiments, the concentration of fetal bovine serum in the microglia culture medium was reduced to 0.1% immediately before drug treatment. All of the compounds were titrated in their respective vehicle and diluted into the culture media for cell treatments. The final concentration of vehicle (DMSO, EtOH or H2O) was consistent for all treated cells (0.2%).
For the immunofluorescence experiments, neurons and microglia were directly seeded on glass coverslips previously treated with 1 mg/mL of poly-L-lysine. […] After the drug treatments, the cells were fixed on ice with 4% paraformaldehyde for 25 min and then permeabilized and blocked using 0.1% Triton X-100 (10 min) and 5% BSA (30 min), respectively. Cells were then incubated overnight with the primary antibodies and 1% BSA at 4 °C. The primary antibodies anti-Nrf2 (ab1375550) and anti-NF-kB p65 (ab16502) (both from Abcam, Cambridge, United Kingdom) were used at 1:200. After washing with PBS, cells were incubated with the fluorophore-conjugated secondary antibody anti-Rabbit IgG Alexa Fluor 488 (Thermo Fisher Scientific) at 1:500 for 1 h at room temperature. Cells were counterstained with the TO-PRO fluorescent dye (Thermo Fisher Scientific) to visualize the cell nuclei. Images were captured using the confocal microscope Leica TCS SP5 (Leica Microsystems, Wetzlar, Germany). For each experimental condition, five random fields were captured and analyzed using ImageJ software (National Institutes of Health, Maryland, DC, USA). Activation of Nrf2 or NF-kB was defined as nuclear translocation, measured by the increase in the mean fluorescence intensity (MFI) in the nucleus. Each experiment was repeated three times.

[2] = system: nitric oxide (NO) production in microglia; experiment: Nitric oxide production (Griess Reagent System) in LPS-activated microglia; format: cell-based, murine; conditions: for lowest concentration inhibiting the production of NO: LPS-activated microglia
Procedure: as §1, with “DMF and MMF (both from Sigma-Aldrich, Saint Louis, MO, USA) were prepared as stock solutions in dimethyl sulfoxide (DMSO); CBD (Cayman chemical, Ann Arbor, MI, USA) was prepared in ethanol (EtOH). Lipopolysaccharide” for “Lipopolysaccharide”
The concentration of nitrites was measured as an indirect indicator of nitric oxide (NO) production in microglia by using the colorimetric assay Griess Reagent System (Promega Biotech Ibérica, Madrid, Spain). Microglial cells were seeded in 96-well plates, previously treated with 0.1 mg/mL of poly-L-lysine, at a density of 50,000 cells/well. […] The concentration of NO was quantified at a wavelength of 520 nm in an absorbance reader plate. Experiments were repeated three times, each condition in triplicate.

[3] = system: LPS-activated microglia cells; experiment: RNA-sequencing of LPS-activated microglia cells treated with drug; format: cell-based, mouse; conditions: 30 µM DMF
Procedure: Microglia cells were activated with LPS and treated with the same drug concentrations at the same timepoints. Each experiment was repeated three times. RNA was extracted using the Maxwell® 16 LEV simplyRNA Cells Kit and the robotic platform Maxwell® 16 (both from Promega Biotech Ibérica) following the manufacturer’s instructions. RNA-sequencing was performed as previously described using the NovaSeq 6000 Sequencing System (Illumina, San Diego, CA, USA) by pair-end (150 x 2) and at a sequencing depth of 20 million reads per sample [60]. FastQC v0.12.1 and Cutadapt v4.4 were used for quality control of the raw reads and removal of the adapter sequences, respectively. Trimmomatic v0.39 was employed to further select trimmed reads larger than 20 nucleotides and with a sequencing quality score greater than 30 [62]. Reads were aligned with HISAT2 v2.2.1 to the mouse or rat genome assemblies GRCm39 and mRatBN7.2, respectively. Mapped reads were annotated using Ensembl gene annotation v110 for the mouse genome and v111 for the rat genome and counts quantified using HTSeq v2.0.3 [63]. Gene counts were analyzed using principal components with custom R scripts (R version 4.3.1). DESeq2 v1.40.2 was used for differential expression analysis.

[4] = after oral intake of the therapeutic dose established for DMF; cited from earlier work

| SMILES | effect on LPS-induced NF-kB p65 nuclear translocation, in words ([1]; 4 µM) | effect on LPS-induced NF-kB p65 nuclear translocation, in words ([1]; 6 µM) | effect on LPS-induced NF-kB p65 nuclear translocation, in words ([1]; CBD concentrations higher than 6 µM) | concentration of NO in the supernatant, in words ([2]; LPS + drug, 10 µM) | concentration of NO in the supernatant ([2]; LPS + drug, starting from 6 µM, all timepoints, LPS alone around 40 µM at 48 and 72 h) | lowest concentration inhibiting the production of NO [2] [µM] | number of DEGs vs cells treated with LPS alone ([3]; 4 h, 30 µM MMF, 6 µM CBD) | number of downregulated DEGs vs LPS alone ([3]; 24 h, 6 µM CBD) | number of upregulated DEGs vs LPS alone ([3]; 24 h, 6 µM CBD) | number of DEGs vs cells treated with LPS alone ([3]; 24 h, 30 µM MMF, 6 µM CBD) | concentration of NO in the supernatant ([2]; LPS + drug, 48 and 72 h, all studied concentrations from 1 µM, LPS alone around 40 µM) | number of downregulated DEGs vs LPS alone ([3]; 4 h, 30 µM MMF) | number of upregulated DEGs vs LPS alone ([3]; 4 h, 30 µM MMF) | number of DEGs with strong downregulation ([3]; 24 h) | number of DEGs with strong upregulation ([3]; 24 h) | effect on LPS-induced NF-kB p65 nuclear translocation, in words ([1]; any of the studied concentrations) | inhibition of NO production, in words ([2]; LPS + drug, 24 h) | inhibition of NO production vs LPS-treated cells, in words ([2]; LPS + drug, same concentrations as DMF (from 1 µM)) | concentration of MMF detected in the brain [4] |
| --- | --- | --- | --- | --- | --- | --- | --- | --- | --- | --- | --- | --- | --- | --- | --- | --- | --- | --- | --- |
| C=C(C)[C@@H]1CCC(C)=C[C@H]1c1c(O)cc(CCCCC)cc1O [CBD, cannabidiol] | inhibition of NF-kB p65 | inhibition of NF-kB p65 | this inhibition was not achieved | almost undetectable | below 10 µM | 6 | 2 | 1265 | 1345 | 2610 | – | – | – | – | – | – | – | – | – |
| COC(=O)/C=C/C(=O)OC [DMF, Dimethyl fumarate] | – | – | – | – | – | ≤ 1 | 542 | 146 | 230 | 376 | around 20 µM | 340 | 202 | 67 | 128 | – | – | – | – |
| COC(=O)/C=C/C(=O)O [MMF, monomethyl fumarate] | – | – | – | – | – | – | eight | – | – | could not detect any transcriptomic changes | – | three | five | – | – | did not prevent the activation of NF-KB | significant NO inhibition | halving the concentrations of NO | approximately 100 µM |
